Test results reported in EP4656207A1, “IN VITRO METHOD FOR T[…] TARGET CELL” (Fundació Hospital Universitari Vall Hebron - Institut de …, priority 2024, dated 2025).

Key:
HEK-293T cells = experiment: Lentiviral transduction enhancement in HEK-293T cells (GFP+ cells by flow cytometry); format: cell-based, human; settings: for transduction enhancing activity: K18-derived peptides at 1 µM compared with commercial TE, MOI = 1 (Figure 3)
Procedure: (§1) To carry out the transduction enhancement assays, 3000 cells (HEK-293T or NIH/3T3, both purchased at the ATCC) were seeded in 100 µL of culture medium (consisting of Dulbecco's Modified Eagle Medium (high glucose) (DMEM, Gibco™), supplemented with 10% fetal bovine serum (FBS), 1% L-glutamine and 1% penicillin/streptomycin (P/S) (both from Cultek S.L.U.), per well, in culture-treated flat-bottomed 96-well plates, and incubated for 24 h at 37° with 5% CO2 and 100% relative humidity.
(§2) The vector was diluted in complete medium, and the appropriate amounts were added to each well at the chosen MOI into a final volume of 200 µL per well, in the absence or presence of the chosen TE (peptides, LB, VF-1, PS, RN, PGE2) at different concentrations and following the manufacturer's recommendations. The culture medium was changed 24 h after transduction and the cells were incubated for 48 h more until the plate was analyzed 3 days post-transduction by flow cytometry.
All experiments included a non-transduced control (cells only) without vector exposure, and a control with vectors but without TE (basal transduction). In all assays, a minimum of three replicates (technical replicates) were performed per experimental condition, and were repeated a minimum of three times (experimental replicates) for statistical analysis.
Transduction efficiency was analyzed using an LSR Fortessa cell analyzer (Becton, Dickinson, New Jersey, USA), after 3, 7 or 14 days post-transduction (depending on the target cell type). First, cells were transferred using a multichannel pipette to a U-bottom 96-well plate. Live and dead cells were dis-criminated using 1 µg/mL 7-amino-actinomycin D (7-AAD).
To analyze the transduction efficacy and cytotoxicity of the compounds used, different gates of analysis were defined. Samples of transduced cells (labeled and unlabeled with PI or 7-AAD), with a minimum of 10.000 events in the relevant gate, were acquired. Further, appropriate thresholds were established to define the cell populations. Four final gates were created and applied sequentially: • Gate 1. Plotting forward scatter high or FSC-H (Forward scatter height) versus forward scatter area or FSC-A (Forward scatter area). Here single events were gated to eliminate doublets. • Gate 2. Plotting the Side scatter area (SSC-A) against the Forward scatter area (FSC-A). This gate was used to eliminate cellular debris and atypical and undesired events, taking into account their morphology and complexity. • Gate 3. Thanks to the labeling of the cells with PI or 7-AAD it was possible to calculate the percentage of dead cells and eliminate them from the study. Only live cells were considered for the subsequent analysis gate. • Gate 4. The percentage of live transduced cells was obtained using eGFP fluorescence (FL1). As an additional parameter, the Mean Fluorescence Intensity (MFI) of the transduced cells was measured. The MFI is the mean of all fluorescence intensities of individual cells (or events) in a desired population. In our case, the MFI values obtained represented the mean fluorescence level of eGFP in the transduced cells (gate 4). All data were obtained and analyzed using FACSDiva software v6.2 and FlowJo v10 software (both from BD Biosciences).

NK cells = experiment: Lentiviral transduction enhancement in primary NK cells (flow cytometry); format: cell-based, human; settings: MOI = 5; for fold changes: fold change relative to basal transduction, 1.5 µM
Procedure: • 1. Total blood samples were collected and processed in less than 4 h. After obtaining the peripheral blood mononuclear cells (PBMCs) by density gradient centrifugation (Ficoll), NK cells (following the instructions of the Miltenyi Biotec isolation kit) from human they were seeded in a 24-well plate [10^6 cells per well in 1 mL of complete medium (NK MACS supplemented with 5% AB serum (Tebu-Bio, Le Perray, France), recombinant human IL-2 (rhIL-2) and recombinant human IL-15 (rhIL-15), both from Miltenyi Biotec)], and incubated at 37°C, 5% CO2, and 100% relative humidity. • 2. After 48 h in culture, cells were counted, and about 40,000 cells were seeded in 100 µL of complete medium (per well) in culture-treated 96-well flat-bottom plate. The transduction process was performed as follows: • 3. Calculate the required volume of lentiviral vector for a known number of NK cells and desired MOI, and the vector diluted in complete medium. Simultaneously, prepare all the enhancers to be used in the assay (micellar peptides, LB, PS, VF-1, etc.) at the concentrations recommended by the manufacturers. […] At days 3, 7 and 14 post-transduction, the cells were analyzed by flow cytometry.
(§3) Transduction efficiency was analyzed using an LSR Fortessa cell analyzer (Becton, Dickinson, New Jersey, USA), after 3, 7 or 14 days post-transduction (depending on the target cell type). […]
To analyze the transduction efficacy and cytotoxicity of the compounds used, different gates of analysis were defined. […] The percentage of live transduced cells was obtained using eGFP fluorescence (FL1). As an additional parameter, the Mean Fluorescence Intensity (MFI) of the transduced cells was measured. The MFI is the mean of all fluorescence intensities of individual cells (or events) in a desired population. In our case, the MFI values obtained represented the mean fluorescence level of eGFP in the transduced cells (gate 4). All data were obtained and analyzed using FACSDiva software v6.2 and FlowJo v10 software (both from BD Biosciences).

[1] = concentrations higher than 10-15 µM; dose-dependent
Procedure: Studies with the fluorochrome Yo-Pro-1 were performed at the laboratory of Dr. Pablo Pelegrin, at the University of Murcia.

CD4^+ T cells = experiment: Lentiviral (anti-CD19 CAR) transduction enhancement in CD4+ T cells (flow cytometry); format: cell-based, human; settings: 72 h after transduction; differences between the four compounds not statistically significant (Figure 6)
Procedure: • 1. After isolation and activation of the CD4^+ T cells, a suspension of 10^6 cells/mL was prepared and 100 µL were added per well to a 96-well flat-bottom plate and incubated at 37°C, 5% CO2, and 100% relative humidity. After 24 h in culture, the vector was diluted to the desired concentration and mixed with the different TEs (peptides, LB, VF-1, PS, PGE2), and 50 µL per well of the vector-TEs solution was added. The A3B1:CD8:4-1BB:CD3ζ (also named ARI001-CodonOptimized3 vector), a third generation lentiviral vector encoding an anti-human CD19 CAR, was used for this assay. • 2. After 72 h post-transduction, samples were collected and stained for flow cytometry analysis: First, the entire plate contents were transferred to a pre-labeled 96-well roundbottom plate. Two washes were performed with 1X PBS, adding 100 µL per well and centrifuging the plate for 2' at 2000 rpm. In the last wash, the supernatant was discarded, and 100 µL of a working solution of eFluor™ 450 - Fixable Viability Dye Live/Dead (eBioscience™) was added and incubated for 30' at RT. • 3. Two washes were performed with 200 µL of FACS buffer (PBS 1X + 3% FBS). […] Finally, transduction efficiency was analyzed by flow cytometry to determine the percentage of CAR-positive T cells.

NIH/3T3 cells = experiment: Lentiviral transduction enhancement in NIH/3T3 cells (GFP+ cells and living cells by flow cytometry); format: cell-based, murine; settings: micellar peptide at 1 µM; MOI = 1; GFP+ cells 72 h after vector exposure; compared with other TEs (Figure 1)
Procedure: as §1
as §2, with “cytometry. […]” for “cytometry.”
as §3
To analyze the transduction efficacy and cytotoxicity of the compounds used, different gates of analysis were defined. […] The percentage of live transduced cells was obtained using eGFP fluorescence (FL1). […]

CD34^+ cells = experiment: Lentiviral transduction enhancement in CD34+ hematopoietic cells (flow cytometry); format: cell-based, human; settings: peptides at 3 µM, LB 5 mg/mL; MOI = 1; days 3, 7 and 14 after transduction; only K18-8R and LentiBoost statistically significant vs basal transduction (Figure 4)
Procedure: • 1. The CD34^+ cells were isolated from apheresis products from healthy donors and cryopreserved in liquid nitrogen until use. Cells were then thawed, counted with trypan blue, and seeded in culture-treated 96-well flat-bottom plates, about 50.000 cells per well in 100 µL of complete StemSpan™ SFEM Hematopoietic Cell Culture Medium (SFEM medium) (Stem Cell Technologies™, Vancouver, Canada), and incubated at 37°C, 5% CO2 and 100% relative humidity. The complete medium was supplemented with recombinant human stem cell factor (rhSCF), recombinant human flt3 ligand (rhFlt3-L) and recombinant human thrombopoietin (rhTpo) (all from EuroBioScience, Friesoythe, Germany). • 2. After 24 h in culture, the cells were transduced as follow: Previously, the required volume of lentiviral vector was calculated in accordance with the vector titer, the CD34^+ target cell number and the desired MOI. Prior to its use, the vector was diluted in complete SFEM medium. • 3. […] Finally, at 3, 7 and 14 days post-transduction, the cells were analyzed by flow cytometry and the plates were stored at -80° for future analyses.
as §3

Antimicrobial activity = format: cell-based; settings: concentrations higher than 10-15 µM; dose-dependent

LLNIKVKLEAEIATYRRLLE (poloxamer F-127 micelles) [K18, conjugated to poloxamer F-127 polymeric micelles]
transduction enhancing activity (HEK-293T cells): highest activity

LLNIKVKLEAEIRRRRRRRR (poloxamer F-127 micelles) [K18-8R, first 12 amino acids of K18 plus an 8R tail; conjugated to poloxamer F-127 polymeric micelles]
fold changes (NK cells; day 3): 2.2 | fold changes (NK cells; day 14): 3.5 | enhancing activity (NK cells; peptides at 1.5 µM, compared with scrambled control, micelle alone and LB (Figure 7)): highest enhancing activity | cytotoxic activity [1]: predominated | hemolytic activity [1]: predominated | transduction efficiency (CD4^+ T cells): highest transduction efficiency | transduction enhancing activity (NIH/3T3 cells): highest transduction enhancing activity | enhancing efficacy (transduction efficiencies by flow cytometry) (CD34^+ cells): highest enhancing efficacy | transduction enhancing activity at higher concentrations (HEK-293T cells; 5 µM or more, MOI 1 and 5, perhaps due to toxicity (Figure 2)): decreased | transduction enhancing activity (HEK-293T cells): highest activity | transduction enhancement (HEK-293T cells; peptide at 1 µM, MOI 1 and 5, experiment made only once (Figure 2)): highest transduction enhancement | antimicrobial activity (Antimicrobial activity): predominated

LLNKEIKIEVALARRRRRRRR (polymeric micelles) [Sc-K18-8R, conjugated to polymeric micelles, reference compound]
enhancing efficacy (transduction efficiencies by flow cytometry) (CD34^+ cells): significant enhancing activity

LLNVKMALDIEIRRRRRRRR [DIF-P-8R]
enhancing activity (HEK-293T cells; several concentrations, MOI 1 and 5, experiment made only once (Figure 2)): enhancing activity, that was higher at 5-15 µM than at 1 µM
